Experimental data published in US8008260B2, “Methods of protecting against apoptosis using lipopeptides” (Cleveland Clinic Foundation, priority 2005, dated 2011).
Peptide text beside a SMILES is read from it. * marks the point of attachment. Propyl(2R-PamO,3-PamO) = CCCCCCCCCCCCCCCC(=O)OC[C@H](C*)OC(=O)CCCCCCCCCCCCCCC; X1 = CCCCCCCCCCCCCCCC(=O)OCC(C*)OC(=O)CCCCCCCCCCCCCCC

Experiments:
TLR2/TLR6 heterodimer = molecular target: T1, TLR2/TLR6 heterodimer (Homo sapiens, UniProt O60603+Q9Y2C9); experiment: NF-κB-dependent reporter activity in 293 cells expressing the TLR2/TLR6 heterodimer; type: cell-based; parameters: NF-κB activation: scale not given here; settings: in vitro activity, 293 cells expressing TLR2/TLR6
T1 construct: expressed in transfected cells; host or cells: 293 cells
Experimental: NF-κB-dependent reporter activity was measured in 293 cells that expressed the TLR2/YLR6 heterodimer. […] None of the non-palmitoylated corresponding peptides activated the NF-κB reporter (FIG. 18B). The peptide component of CBLB617 has a (−4) charge, which should prevent it from interacting with negatively charged cell surface markers. […] Table 5 summarizes the in vitro activity and solubility of all the compounds.

[1] = Solubility of the lipopeptides

T1 sequence (O60603 21-784): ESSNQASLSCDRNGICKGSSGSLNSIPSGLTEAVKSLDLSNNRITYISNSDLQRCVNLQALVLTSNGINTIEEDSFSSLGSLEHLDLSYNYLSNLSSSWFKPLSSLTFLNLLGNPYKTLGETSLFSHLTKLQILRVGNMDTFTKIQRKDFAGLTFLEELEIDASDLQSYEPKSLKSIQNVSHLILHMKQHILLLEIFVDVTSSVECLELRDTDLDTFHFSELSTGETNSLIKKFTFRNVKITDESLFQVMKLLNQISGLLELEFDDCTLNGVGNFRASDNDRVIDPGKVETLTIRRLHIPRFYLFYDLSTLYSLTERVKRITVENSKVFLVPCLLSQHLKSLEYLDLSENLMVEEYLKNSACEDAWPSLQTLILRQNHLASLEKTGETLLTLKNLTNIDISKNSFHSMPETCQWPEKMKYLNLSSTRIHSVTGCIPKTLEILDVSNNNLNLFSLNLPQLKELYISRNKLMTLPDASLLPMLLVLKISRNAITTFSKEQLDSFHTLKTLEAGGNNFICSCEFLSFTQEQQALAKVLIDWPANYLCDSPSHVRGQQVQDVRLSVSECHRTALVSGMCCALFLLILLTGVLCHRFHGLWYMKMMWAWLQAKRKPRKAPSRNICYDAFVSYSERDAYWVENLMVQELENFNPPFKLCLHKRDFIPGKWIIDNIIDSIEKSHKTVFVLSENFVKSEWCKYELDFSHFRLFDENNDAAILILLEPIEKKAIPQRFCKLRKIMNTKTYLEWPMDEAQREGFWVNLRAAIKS
T1 sequence (Q9Y2C9 32-796): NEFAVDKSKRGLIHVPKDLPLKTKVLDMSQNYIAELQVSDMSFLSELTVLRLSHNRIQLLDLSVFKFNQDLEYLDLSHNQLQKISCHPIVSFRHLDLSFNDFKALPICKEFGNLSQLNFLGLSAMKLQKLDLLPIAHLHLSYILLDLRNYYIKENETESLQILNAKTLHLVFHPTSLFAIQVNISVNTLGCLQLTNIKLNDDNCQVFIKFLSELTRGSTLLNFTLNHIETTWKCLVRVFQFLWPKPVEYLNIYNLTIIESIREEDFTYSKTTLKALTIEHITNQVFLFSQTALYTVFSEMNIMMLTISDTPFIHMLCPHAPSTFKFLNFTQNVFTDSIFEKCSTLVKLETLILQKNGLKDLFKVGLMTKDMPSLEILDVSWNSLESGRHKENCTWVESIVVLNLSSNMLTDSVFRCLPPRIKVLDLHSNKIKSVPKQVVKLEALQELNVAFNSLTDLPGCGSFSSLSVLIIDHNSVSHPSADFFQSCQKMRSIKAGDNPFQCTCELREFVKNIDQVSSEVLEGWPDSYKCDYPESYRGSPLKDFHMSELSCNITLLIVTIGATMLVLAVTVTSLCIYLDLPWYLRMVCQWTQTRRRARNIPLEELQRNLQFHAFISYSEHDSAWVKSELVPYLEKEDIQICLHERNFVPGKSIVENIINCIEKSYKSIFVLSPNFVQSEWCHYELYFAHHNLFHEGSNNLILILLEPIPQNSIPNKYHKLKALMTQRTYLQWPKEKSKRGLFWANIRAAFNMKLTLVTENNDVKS

Compound | NF-κB activation (TLR2/TLR6 heterodimer) | Solubility [1]
CCCCCCCCCCCCCCCC(=O)OCC(CSC[C@H](N)C(=O)NCC(=O)N[C@@H](CCC(N)=O)C(=O)N[C@@H](Cc1c[nH]cn1)C(=O)N[C@@H](Cc1c[nH]cn1)C(=O)N[C@@H](Cc1c[nH]cn1)C(=O)O)OC(=O)CCCCCCCCCCCCCCC (stereo partly drawn) [CBLB602] (H-C(X1)GQHHH-OH) | 0 | Poor
CCCCCCCCCCCCCCCC(=O)OCC(CSC[C@H](N)C(=O)NCC(=O)N[C@@H](CCC(N)=O)C(=O)N[C@@H](Cc1c[nH]cn1)C(=O)N[C@@H](Cc1c[nH]cn1)C(=O)N[C@@H](CCSC)C(=O)O)OC(=O)CCCCCCCCCCCCCCC (stereo partly drawn) [CBLB603] (H-C(X1)GQHHM-OH) | 0 | Poor
CCCCCCCCCCCCCCCC(=O)OCC(CSC[C@H](N)C(=O)NCC(=O)N[C@@H](CO)C(=O)N[C@@H](Cc1c[nH]cn1)C(=O)N[C@@H](Cc1c[nH]cn1)C(=O)N[C@@H](CCSC)C(=O)O)OC(=O)CCCCCCCCCCCCCCC (stereo partly drawn) [CBLB604] (H-C(X1)GSHHM-OH) | 0 | Poor
CCCCCCCCCCCCCCCC(=O)OCC(CSC[C@H](N)C(=O)N[C@@H](CO)C(=O)N[C@@H](CCC(N)=O)C(=O)N[C@@H](CCSC)C(=O)N[C@@H](Cc1c[nH]cn1)C(=O)N[C@@H](Cc1c[nH]cn1)C(=O)O)OC(=O)CCCCCCCCCCCCCCC (stereo partly drawn) [CBLB605] (H-C(X1)SQMHH-OH) | 2 | Poor
CCCCCCCCCCCCCCCC(=O)OC[C@H](CSC[C@H](N)C(=O)NCC(=O)N[C@@H](CC(=O)O)C(=O)N1CCC[C@H]1C(=O)N[C@@H](CCCCN)C(=O)N[C@@H](Cc1c[nH]cn1)C(=O)N1CCC[C@H]1C(=O)N[C@@H](CCCCN)C(=O)N[C@@H](CO)C(=O)N[C@@H](Cc1ccccc1)C(=O)O)OC(=O)CCCCCCCCCCCCCCC [CBLB606] (H-C(Propyl(2R-PamO,3-PamO))GDPKHPKSF-OH; C-terminus assumed) | 100 | Poor
CCCCCCCCCCCCCCCC(=O)OCC(CSC[C@H](N)C(=O)NCC(=O)N[C@@H](CC(=O)O)C(=O)N1CCC[C@H]1C(=O)N[C@@H](CCCCN)C(=O)N[C@@H](Cc1c[nH]cn1)C(=O)N1CCC[C@H]1C(=O)N[C@@H](CCCCN)C(=O)N[C@@H](CO)C(=O)N[C@@H](Cc1ccccc1)C(=O)N[C@H](C(=O)NCC(=O)N[C@@H](Cc1c[nH]c2ccccc12)C(=O)N[C@H](C(=O)N[C@@H](C)C(=O)O)C(C)C)[C@@H](C)O)OC(=O)CCCCCCCCCCCCCCC (stereo partly drawn) [CBLB607] (H-C(X1)GDPKHPKSFTGWVA-OH) | 2 | Poor
CCCCCCCCCCCCCCCC(=O)OCC(CSC[C@H](N)C(=O)N[C@@H](Cc1ccccc1)C(=O)N[C@@H](CCC(=O)O)C(=O)N1CCC[C@H]1C(=O)N1CCC[C@H]1C(=O)N1CCC[C@H]1C(=O)N[C@@H](C)C(=O)N[C@H](C(=O)N[C@H](C(=O)N[C@H](C(=O)N[C@@H](CCCCN)C(=O)N[C@@H](CO)C(=O)N[C@@H](CCCCN)C(=O)O)[C@@H](C)O)[C@@H](C)O)[C@@H](C)O)OC(=O)CCCCCCCCCCCCCCC (stereo partly drawn) [CBLB608] (H-C(X1)FEPPPATTTKSK-OH) | 2 | Excellent
CCCCCCCCCCCCCCCC(=O)OCC(CSC[C@H](N)C(=O)NCC(=O)N[C@@H](CCC(=O)O)C(=O)N[C@H](C(=O)N[C@@H](CC(=O)O)C(=O)N[C@@H](CCCCN)C(=O)N[C@@H](CCC(=O)O)C(=O)NCC(=O)N[C@@H](CCCCN)C(=O)N[C@H](C(=O)N[C@H](C(=O)N[C@@H](CCCNC(=N)N)C(=O)N[C@H](C(=O)N[C@@H](Cc1ccccc1)C(=O)N[C@@H](CC(=O)O)C(=O)N[C@@H](CC(N)=O)C(=O)N[C@@H](CO)C(=O)N[C@@H](Cc1ccccc1)C(=O)O)[C@@H](C)CC)[C@@H](C)CC)[C@@H](C)CC)[C@@H](C)O)OC(=O)CCCCCCCCCCCCCCC (stereo partly drawn) [CBLB611] (H-C(X1)GETDKEGKIIRIFDNSF-OH) | 0 | 
